Measured values from patent US6995190B2 (Veterinary Solutions, priority 2001, dated 2006).

Key:
[1] = system: platelet cyclo-oxygenase; details: horse, cited from earlier work
[2] = system: swine influenza; type: in vivo, finishing hogs
[3] = system: horse with chronic laminitis; experiment: Horse with chronic laminitis, Ketoprofen in the water, acceptance and intake; type: in vivo; details: 1 mg per pound in the water for 2 weeks
[4] = system: PRRS (Porcine Respiratory and Reproductive Syndrome) Virus; experiment: PRRS virus outbreak in swine nursery, Ketoprofen orally; type: in vivo; details: orally for 7 days, along with the same other therapy as controls
From the text: A swine client with a 10,000 head nursery was experiencing severe mortality due to a PRRS (Porcine Respiratory and Reproductive Syndrome) Virus outbreak. They had used antibiotics with only partial success and were seeing mortalities as high as 30 percent in the group. […] We also saw less chronic pigs in the treatment group 3% versus 15% in the controls.

[5] = 1 mg/pound for 3 days orally through the drinking water

Row | Structure (SMILES) | reductions in exudates eicosanoid concentrations ([1]; carrageenin tissue-cage exudate) | duration of inhibition of platelet cyclo-oxygenase ([1]; oral) [h] | morbidity at the time of the outbreak [2, 5] [%] | mortality [2, 5] [%] | average time to market, less than the control group ([2]; 1 mg/pound for 3 days orally through the drinking water, 150 pound finishing hogs marketed at 260 pounds) [days] | follow-up mass medication with antibiotics ([2]; two weeks after the outbreak) | pain compared with previous treatment (phenylbutazone) [3] | chronic pigs [4] [%] | mortality [4] [%]
1 | CN=C1CCN(c2cccc(C(F)(F)F)c2)N1 [BW540C] | less pronounced | 24 |  |  |  |  |  |  | 
2 | CC(C(=O)O)c1cccc(C(=O)c2ccccc2)c1 (stereo not drawn) [Ketoprofen] |  |  | 10 | 2.1 | 9 | did not require any mass medication with antibiotics | less painful | 3 | 7
